Test results reported in patent US20140206678A1, “INHIBITORS OF MTOR KINASE AS ANTI -VIRAL AGENT” (KADMON CORPORATION, LLC, priority 2011, published 2014).
Entries after “also recorded” stand apart in the source; their conditions may differ.

Columns and labels:
[1] = tested on: HCMV; test: HCMV yield in MRC5 fibroblasts at 96 hours post-infection (mTOR inhibitors); assay type: cell-based, human cytomegalovirus; details: 0.5 pfu/cell, up to 5 μM
[2] = tested on: MCMV; test: MCMV replication in mouse embryo fibroblasts, TCID50; assay type: cell-based, murine cytomegalovirus; details: wild-type MEFs; rapamycin 20 nM, Torin1 250 nM; 0.05 PFU/cell
[3] = tested on: HCMV; test: HCMV multistep growth in serum-starved human fibroblasts, cell-free virus by TCID50; assay type: cell-based, human cytomegalovirus; details: day 10; rapamycin 20 nM, Torin1 250 nM; 0.05 PFU/cell
[4] = target: mTOR (Homo sapiens, UniProt P42345); details: read-out: IC50 (selective mTOR inhibitors); cited from earlier work
[5] = tested on: PI3Ks; details: cited from earlier work
[6] = tested on: panel of 140 protein kinases; details: read-out: IC50 against panel of 140 protein kinases; cited from earlier work
[7] = tested on: HCMV strain AD169; test: HCMV AD169 replication in human fibroblasts with 4-PBA alone or with mTOR inhibitors, TCID50; assay type: cell-based, human cytomegalovirus
[8] = tested on: confluent human fibroblasts; test: Trypan blue exclusion viability of confluent human fibroblasts (4-PBA); assay type: cell-based; details: highest dose tested; eight days
Method: FIG. 11. 4-PBA is not toxic to uninfected or infected confluent human fibroblasts. (A) Fibroblasts were maintained in medium containing the indicated concentrations of 4-PBA for 8 days. The medium was replaced every other day throughout the time course. At the end of the treatment period, cell viability was measured by the trypan blue exclusion assay. Date points represent the mean of duplicate wells. (B) Fibroblasts were infected with HCMV at a multiplicity of 0.1 pfu/cell. Cells were fed every other day with fresh medium containing the indicated concentration of 4-PBA. At eight days post infection, cells were washed once with media, and then media lacking drug was added. Eight days later (16 days post infection) cell free virus in the supernatant was quantitated by the TCID50 method. Date points represent the mean of duplicate wells.
Two experiments were performed to rule out the possibility that 4-PBA is simply toxic to the cells and inhibits HCMV indirectly by reducing cell viability (FIG. 11). In the first experiment (FIG. 11A) an assay for cell viability was performed on confluent human fibroblasts treated for eight days with different concentrations of the drug. The highest dose of the drug tested had no effect on cellular viability in the trypan blue exclusion assay. […] Then the drug was removed and the yield of virus was determined 8 days later.

## CC(C)n1nc(-c2ccc3oc(N)nc3c2)c2c(N)ncnc21 [INK128]
[1]
  HCMV virus production (yield as percentage of untreated cells): inhibit virus production

## CO[C@H]1C[C@@H]2CC[C@@H](C)[C@@](O)(O2)C(=O)C(=O)N2CCCC[C@H]2C(=O)O[C@H]([C@H](C)C[C@@H]2CC[C@@H](O)[C@H](OC)C2)CC(=O)[C@H](C)/C=C(\C)[C@@H](O)[C@@H](OC)C(=O)[C@H](C)C[C@H](C)/C=C/C=C/C=C/1C [rapamycin]
[2]
  MCMV replication: no inhibitory effect
[3]
  reduction of HCMV yield: ~8 fold

## Cn1c(=O)n(-c2ccc(C(C)(C)C#N)cc2)c2c3cc(-c4cnc5ccccc5c4)ccc3ncc21 [BEZ235]
[1]
  HCMV virus production (yield as percentage of untreated cells): inhibit virus production

## O=C(Nc1ccc(-c2nc(N3CC4CCC(C3)O4)c3sccc3n2)cc1)NC1CC1 [Wyeth-BMCL-200910075-9b]
[4]
  IC50: 0.7 nM
[5]
  fold selective versus PI3Ks (PI3K): > 1,000 fold

## CN1CCN(C(=O)c2ccc(NC(=O)Nc3ccc(-c4nc(N5CCOCC5)cc(N5C[C@H]6CC[C@@H](C5)O6)n4)cc3)cc2)CC1 [Wyeth—Compound 27]
[1]
  HCMV virus production (yield as percentage of untreated cells): inhibit virus production

## COc1cc(-c2cn(-c3nc(N4CCOCC4)nc(N4CCOCC4)n3)cn2)cc(OC)c1O [KU-BMCL-200908069-5]
[5]
  fold selective versus PI3Ks (PI3K): > 500 fold

## Cc1c(C(=O)N2CCOc3ccc(-c4ccc(N)nc4)cc3C2)ccc(S(C)(=O)=O)c1F [XL388]
[6]
  IC50: > 3000 nM

## O=C([O-])CCCc1ccccc1.[Na+] [4-PBA, sodium 4-phenylbutyrate]
[7]; all doses tested, 8-day treatment, 16 days post infection
  virus yield 8 days after drug removal: recovered and produced a normal yield
[7]; dose-dependent, day 8 post infection, 0.1 pfu/cell
  HCMV virus replication: effectively inhibited; also recorded: inhibited virus production
[8]
  cellular viability, trypan blue exclusion assay: no effect

## CNC(=O)Nc1ccc(-c2nc(N3C[C@H]4CC[C@@H](C3)O4)c3cnn(C4CCC5(CC4)OCCO5)c3n2)cc1 [WYE-125132]
[4]
  IC50: 0.19 nM
[5]
  fold selective versus PI3Ks (PI3K): > 5,000 fold
